≈ marks a conversion by molar mass, not a printed value. Like-named read-outs stand apart in the source and are kept apart here. Some results are limits rather than exact numbers.

Series [1] concerns Escherichia coli (ATCC 25922). The experiment in a line: Broth dilution MIC against E. coli. The class given is cell-based. To be noted: for MIC: Escherichia coli, read-out: Antimicrobial minimal inhibition concentration (MIC), E. coli. (In broth dilution the organism is exposed to a series of concentrations in liquid medium.)
The subject of series [2] is Staphylococcus aureus (ATCC 29213). The experiment in a line: Broth dilution MIC against S. aureus. In kind it is cell-based. Particulars: for MIC: Staphylococcus aureus, ATCC29213, 24 h, read-out: Antimicrobial minimal inhibition concentration (MIC), S. aureus.
The test system of series [3] is methicillin resistant Staphylococcus aureus (MRSA), un-typed isolate. The experiment in a line: Broth dilution MIC against MRSA. In kind it is cell-based. Particulars: for MIC: Staphylococcus aureus, MRSA, read-out: Antimicrobial minimal inhibition concentration (MIC), MRSA; for MIC / Antimicrobial minimal inhibition concentration (MIC), MRSA: 24 h; for Growth inhibition of MRSA (in words): up to 1000 µg/mL.

Series [4] relates to human breast cancer cell line (HCC 1395). The experiment in a line: MTT antiproliferative assay, breast cancer cells. In kind it is cell-based. To be noted: for IC50: Homo sapiens; for Selectivity Indexes HCC 1395: SI = CC50 (Vero E6) / IC50 (HCC 1395). Background: Formazan colour is commonly taken as a measure of viable cells.
Series [5] is described as follows: MTT cytotoxicity assay, normal cell line. Particulars: African green monkey.
The next series concerns E. coli. Also on record: method as in PMID 22864735. To be noted: compound isolated from Zanthoxylum rhetsa roots; cited from earlier work.
The test system of series [6] is human prostate cancer cell line (DU 145). The experiment in a line: MTT antiproliferative assay, prostate cancer cells. To be noted: for IC50: Homo sapiens; for Selectivity Indexes DU 145: SI = CC50 (Vero E6) / IC50 (DU 145). In kind it is cell-based.
For another series, the system named is MRSA. Further details: method as in PMID 22864735. To be noted: compound isolated from Zanthoxylum rhetsa roots; cited from earlier work.
Series [7] relates to Candida albicans (ATCC 10231). The series can be described thus: Broth dilution MIC against C. albicans. The class given is cell-based. To be noted: for MIC: Candida albicans, read-out: Antimicrobial minimal inhibition concentration (MIC), C. albicans; for Growth inhibition of C. albicans (in words): up to 1000 µg/mL.
The test system of a further series is Streptococcus pyogenes. Further details: method as in PMID 25546028. Particulars: cited from earlier work.
For a further series, the system named is Clostridium sporogenes. Further details: method as in PMID 25546028. To be noted: cited from earlier work.
Another series can be described thus: in vitro. To be noted: African green monkey.
[8] abbreviates: ATCC25922, ATCC 25922, broth two-fold dilution, 37 °C, 24 h.
Setting [9] is: ATCC 29213, broth two-fold dilution, 37 °C, 24 h.
Where [10] appears, read: HCC1395, MTT assay, Mean ± SEM, triplicate, read-out: IC50 Cancerous Cell Lines HCC 1395.
Where [11] appears, read: DU-145, MTT assay, Mean ± SEM, triplicate, read-out: IC50 Cancerous Cell Lines DU 145.
[12] abbreviates: ATCC10231, ATCC 10231, broth two-fold dilution, 30 °C, 72 h.
Setting [13] is: Vero E6 cells (normal cell line).

As usually defined, the IC50 is the concentration needed to halve the response being measured. `COc1ccc2c(c1OC)C(CC(C)=O)N(C)c1c-2ccc2cc3c(cc12)OCO3` (centres unmarked) [8-acetonyldihydrochelerythrine (4), 8-acetonyldihydrochelerythrine]: the MIC in series [1] (setting [8]) was 15.6 µg/mL (≈ 38.5 µM); in [2] (setting [9]), 15.6 µg/mL (≈ 38.5 µM); in [3], 31.2 µg/mL (≈ 77.1 µM); in series [7] (setting [12]), 62.5 µg/mL (≈ 154 µM). Moreover, the figures for the IC50 in series [4] (setting [10]) and in series [6] (setting [11]) were 9.99 ± 0.6 µg/mL (≈ 24.6 µM) and 66.82 ± 0.58 µg/mL (≈ 165 µM), respectively. In addition, the “Selectivity Indexes HCC 1395” value in series [4] came to 4.79. The same molecule showed a CC50 at 48 h in series [5] of 47.8 ± 1.15 µg/mL (≈ 118 µM). Moreover, the “MIC against E. coli” value in the series on E. coli is 16 µg/mL (≈ 39.5 µM). In addition, the “Selectivity Indexes DU 145” value in series [6] amounted to 0.72. For the same molecule, the “MIC against MRSA” value in the series with MRSA was 8 µg/mL (≈ 19.7 µM).
As to `COc1ccc2c(c1OC)c(=O)n(C)c1c3cc4c(cc3ccc21)OCO4` [8-oxochelerythrine (8), 8-oxochelerythrine], the MIC turned out to be 3.91 µg/mL (≈ 10.8 µM) in series [1] (setting [8]); 62.5 µg/mL (≈ 172 µM) in series [3] (broth two-fold dilution, 37 °C); 15.6 µg/mL (≈ 43 µM) in [7] (setting [12]). Also, the “Antimicrobial minimal inhibition concentration (MIC), MRSA” value in [3] (broth two-fold dilution, 37 °C) came to 62.50 µg/mL. Besides, the “MIC against Streptococcus pyogenes” value in the series with Streptococcus pyogenes is 3.64 µM (≈ 1.32 µg/mL). Further, the results for the IC50 in [4] (setting [10]) and in series [6] (setting [11]) were 14.1 ± 0.3 µg/mL (≈ 38.8 µM) and 63.4 ± 1.1 µg/mL (≈ 175 µM), respectively. Also, the “Selectivity Indexes HCC 1395” value in series [4] is listed as 9.60. The same molecule had a CC50 at 48 h in series [5] (setting [13]) of 135.32 ± 0.12 µg/mL (≈ 372 µM). Besides, in [6], the “Selectivity Indexes DU 145” value was found to be 2.13. Also, the “MIC against Clostridium sporogenes” value in the series with Clostridium sporogenes is 0.91 µM (≈ 0.331 µg/mL).
On to `COc1ccc2c(c1)c1ccnc3ccc(=O)n2c31` [10-methoxycanthin-6-one (6), 10-methoxycanthin-6-one], for which the MIC came out at 3.91 µg/mL (≈ 15.6 µM) in series [1] (setting [8]); 1.95 µg/mL (≈ 7.79 µM) in series [2] (setting [9]); 3.91 µg/mL (≈ 15.6 µM) in [3] (broth two-fold dilution, 37 °C); 7.81 µg/mL (≈ 31.2 µM) in series [7] (setting [12]). Further, the figures for the half-inhibitory concentration (IC50) in series [4] (setting [10]) and in series [6] (setting [11]) were 14.7 ± 0.5 µg/mL (≈ 58.7 µM) and 1.58 µg/mL (≈ 6.31 µM), respectively. In series [4], the “Selectivity Indexes HCC 1395” value was 3.67. The CC50 at 48 h in series [5] (setting [13]) came out at 53.95 ± 0.38 µg/mL (≈ 216 µM). In addition, the “Selectivity Indexes DU 145” value in series [6] came to 34.15.
On to `COc1cccc2c1C(=O)c1c(O)c3c(c(O)c1C2=O)C[C@@](O)(C(=O)CO)C[C@@H]3O[C@H]1C[C@H](N)[C@H](O)[C@H](C)O1` [Doxorubicin, reference compound], for which the figures for the half-inhibitory concentration (IC50) in series [4] (setting [10]) and in series [6] (setting [11]) were 0.21 ± 0.2 µg/mL (≈ 0.386 µM) and 0.59 ± 0.01 µg/mL (≈ 1.09 µM), respectively. In addition, in [4], the “Selectivity Indexes HCC 1395” value is 1.41. For the same molecule, the “Selectivity Indexes DU 145” value in series [6] stood at 0.51. Moreover, the CC50 at 48 h in “in vitro” was 0.3 ± 0.12 µg/mL (≈ 0.552 µM).
Consider `OC(Cn1cncn1)(Cn1cncn1)c1ccc(F)cc1F` [Fluconazole, reference compound], for which the MIC in series [7] (setting [12]) was determined as 1.95 µg/mL (≈ 6.37 µM).
As for `O=c1ccc2nccc3c4ccccc4n1c23` [canthin-6-one (7), canthin-6-one], the MIC came out at 1.95 µg/mL (≈ 8.85 µM) in series [1] (setting [8]); 0.48 µg/mL (≈ 2.18 µM) in [2] (setting [9]); 0.97 µg/mL (≈ 4.4 µM) in series [3] (broth two-fold dilution, 37 °C); 3.91 µg/mL (≈ 17.8 µM) in [7] (setting [12]). Besides, the “Antimicrobial minimal inhibition concentration (MIC), S. aureus” value in series [2] (setting [9]) was determined as 0.49 µg/mL. In series [3] (broth two-fold dilution, 37 °C), the “Antimicrobial minimal inhibition concentration (MIC), MRSA” value is 0.98 µg/mL. Moreover, the values for the IC50 in series [4] (setting [10]) and in series [6] (setting [11]) were 8.12 ± 0.6 µg/mL (≈ 36.9 µM) and 9.43 ± 0.01 µg/mL (≈ 42.8 µM), respectively. Besides, the “Selectivity Indexes HCC 1395” value in series [4] is given as 5.15. The same molecule returned a CC50 at 48 h in [5] (setting [13]) of 41.8 ± 0.64 µg/mL (≈ 190 µM). In addition, the “Selectivity Indexes DU 145” value in [6] was 4.43.
Turning to `CCCCCCCCCCCCCC(=O)O` [myristic acid (1), myristic acid], the MIC in series [1] (setting [8]) is > 1000 µg/mL; in [2] (setting [9]), > 1000 µg/mL; in series [3] (broth two-fold dilution, 37 °C), > 1000 µg/mL; in [7] (setting [12]), > 1000 µg/mL. Further, the half-inhibitory concentration (IC50) in [4] (setting [10]) came out at 57.7 ± 1.2 µg/mL (≈ 253 µM); in series [6] (setting [11]), 80.24 ± 0.12 µg/mL (≈ 351 µM). In addition, the “Selectivity Indexes HCC 1395” value in series [4] is given as 1.12. For the same molecule, the CC50 at 48 h in series [5] (setting [13]) amounted to 64.86 ± 0.51 µg/mL (≈ 284 µM). Further, the “Selectivity Indexes DU 145” value in series [6] stood at 0.81.
Regarding `c1cc2c(cc1[C@H]1OC[C@H]3[C@@H]1CO[C@@H]3c1ccc3c(c1)OCO3)OCO2` [sesamin (3), sesamin], the MIC is > 1000 µg/mL in series [1] (setting [8]); 500 µg/mL (≈ 1410 µM) in series [2] (setting [9]); > 1000 µg/mL in series [3] (broth two-fold dilution, 37 °C); > 1000 µg/mL in [7] (setting [12]). Also, in series [1] (up to 1000 µg/mL), the “Growth inhibition of E. coli (in words)” value was “no activity”. For the same molecule, in [3], the “Growth inhibition of MRSA (in words)” value is “no activity”. Further, the 50% inhibitory concentration (IC50) in [4] (setting [10]) came out at 3.39 ± 1 µg/mL (≈ 9.57 µM); in series [6] (setting [11]), 115.06 ± 0.03 µg/mL (≈ 325 µM). The “Selectivity Indexes HCC 1395” value in [4] amounted to 39.97. Moreover, the “Selectivity Indexes DU 145” value in series [6] was determined as 1.18. The “Growth inhibition of C. albicans (in words)” value in [7] is “no activity”. Also, in “in vitro”, the CC50 at 48 h stood at 135.31 ± 0.12 µg/mL (≈ 382 µM).
Take `CC[C@H](/C=C/[C@@H](C)[C@H]1CC[C@H]2[C@@H]3CC=C4C[C@@H](O)CC[C@]4(C)[C@H]3CC[C@]12C)C(C)C` [stigmasterol (2), stigmasterol]: the MIC is 15.6 µg/mL (≈ 37.9 µM) in series [1] (ATCC25922, 24 h); 62.5 µg/mL (≈ 151 µM) in series [2]; > 1000 µg/mL in series [3]; > 1000 µg/mL in series [7] (ATCC10231, 72 h). For the same molecule, in series [3], the “Growth inhibition of MRSA (in words)” value is reported as “did not inhibit the growth”. The IC50 in [4] (HCC1395, read-out: IC50 Cancerous Cell Lines HCC 1395) was found to be 0.42 ± 0.1 µg/mL (≈ 1.02 µM); in series [6] (DU-145, read-out: IC50 Cancerous Cell Lines DU 145), 140.5 ± 1.27 µg/mL (≈ 340 µM). The “Selectivity Indexes HCC 1395” value in series [4] came to 294.94. Further, in series [5], the CC50 at 48 h is 124 µg/mL (≈ 300 µM). Further, the “Selectivity Indexes DU 145” value in series [6] is 0.88. The “Growth inhibition of C. albicans (in words)” value in series [7] is “did not inhibit the growth”.
For Omacilin [reference compound], the “Antimicrobial minimal inhibition concentration (MIC), E. coli” value in [1] (ATCC 25922, broth two-fold dilution, 37 °C, 24 h) came out at 0.98 µg/mL. In addition, the “Antimicrobial minimal inhibition concentration (MIC), S. aureus” value in series [2] (setting [9]) was 0.49 µg/mL. The “Antimicrobial minimal inhibition concentration (MIC), MRSA” value in series [3] (broth two-fold dilution, 37 °C) is on record as 0.98 µg/mL.

Values taken from article PMC7412065, “In Vitro Antimicrobial and Antiproliferative Activities of the Root Bark Extract and Isolated Chemical Constituents of Zanthoxylum paracanthum Kokwaro (Rutaceae)” (Plants, 2020).
